Assay results as given in the NIST ThermoML archive (doi:10.1021/acs.jced.7b00060).
Values joined by “and” are separate entries in the source; they are usually repeats but may differ in a detail not shown here. Equal values may be shown once. ± gives the expanded uncertainty stated by the source.

Conditions: 308.15 K; 101.33 kPa; Liquid; Vibrating tube method

In order of rising mass density:
1. CCCCCCCC[N+](C)(CCCCCCCC)CCCCCCCC.O=C([O-])C(F)(F)F [methyltrioctylammonium trifluoroacetate]  956.054 ± 2 kg/m3
2. CC[S+](CC)CC.O=S(=O)([N-]S(=O)(=O)C(F)(F)F)C(F)(F)F [triethylsulfonium bis((trifluoromethyl)sulfonyl)imide]  1450.51 ± 3 kg/m3
3. CC[S+](C)CC.O=S(=O)([N-]S(=O)(=O)C(F)(F)F)C(F)(F)F [diethylmethylsulfonium bis[(trifluoromethyl)sulfonyl]imide]  1490.96 ± 3 kg/m3

Same assay, conditions: 313.15 K; 101.33 kPa; Liquid; Vibrating tube method

Molecule `CCCCCCCC[N+](C)(CCCCCCCC)CCCCCCCC.O=C([O-])C(F)(F)F` [methyltrioctylammonium trifluoroacetate] has a mass density of 952.805 ± 2 kg/m3.

Same assay, conditions: 318.15 K; 101.33 kPa; Liquid; Alternating current cell with electrodes

In the case of `CCCC[N+]1(C)CCCC1.N#CN=C=[N-]` [1-butyl-1-methylpyrrolidinium dicyanamide], the electrical conductivity is reported as 1.92 S/m and 2.08 S/m.

In order of falling electrical conductivity:
1. CC[S+](CC)CC.O=S(=O)([N-]S(=O)(=O)C(F)(F)F)C(F)(F)F [triethylsulfonium bis((trifluoromethyl)sulfonyl)imide]  1.29 ± 0.019 S/m
2. CC[S+](C)CC.O=S(=O)([N-]S(=O)(=O)C(F)(F)F)C(F)(F)F [diethylmethylsulfonium bis[(trifluoromethyl)sulfonyl]imide]  1.26 ± 0.019 S/m
3. CCCC[n+]1ccccc1.O=S(=O)([N-]S(=O)(=O)C(F)(F)F)C(F)(F)F [1-butylpyridinium bis[(trifluoromethyl)sulfonyl]imide]  0.677 ± 0.01 S/m
4. CCCCCCCC[N+](C)(CCCCCCCC)CCCCCCCC.O=C([O-])C(F)(F)F [methyltrioctylammonium trifluoroacetate]  0.0063 ± 9.5e-05 S/m

Same assay, conditions: 318.15 K; 101.33 kPa; Liquid; Falling or rolling sphere viscometry

With `CCCC[N+]1(C)CCCC1.N#CN=C=[N-]` [1-butyl-1-methylpyrrolidinium dicyanamide] the viscosity was 21.44 ± 0.42 mPa·s and 19.43 ± 0.38 mPa·s.

In order of rising viscosity:
1. CC[S+](CC)CC.O=S(=O)([N-]S(=O)(=O)C(F)(F)F)C(F)(F)F [triethylsulfonium bis((trifluoromethyl)sulfonyl)imide]  17.34 ± 0.3 mPa·s
2. CC[S+](C)CC.O=S(=O)([N-]S(=O)(=O)C(F)(F)F)C(F)(F)F [diethylmethylsulfonium bis[(trifluoromethyl)sulfonyl]imide]  20.95 ± 0.37 mPa·s
3. CCCC[n+]1ccccc1.O=S(=O)([N-]S(=O)(=O)C(F)(F)F)C(F)(F)F [1-butylpyridinium bis[(trifluoromethyl)sulfonyl]imide]  27.9 ± 0.49 mPa·s
4. CCCCCCCC[N+](C)(CCCCCCCC)CCCCCCCC.O=C([O-])C(F)(F)F [methyltrioctylammonium trifluoroacetate]  380.8 ± 26 mPa·s

Same assay, conditions: 318.15 K; 101.33 kPa; Liquid; Vibrating tube method

With `CCCC[N+]1(C)CCCC1.N#CN=C=[N-]` [1-butyl-1-methylpyrrolidinium dicyanamide] the mass density was 1006.4 ± 2.2 kg/m3 and 1002.27 ± 2.1 kg/m3.

In order of falling mass density:
1. CC[S+](C)CC.O=S(=O)([N-]S(=O)(=O)C(F)(F)F)C(F)(F)F [diethylmethylsulfonium bis[(trifluoromethyl)sulfonyl]imide]  1481.3 ± 3 kg/m3
2. CC[S+](CC)CC.O=S(=O)([N-]S(=O)(=O)C(F)(F)F)C(F)(F)F [triethylsulfonium bis((trifluoromethyl)sulfonyl)imide]  1440.97 ± 2.9 kg/m3
3. CCCC[n+]1ccccc1.O=S(=O)([N-]S(=O)(=O)C(F)(F)F)C(F)(F)F [1-butylpyridinium bis[(trifluoromethyl)sulfonyl]imide]  1430.02 ± 2.9 kg/m3
4. CCCCCCCC[N+](C)(CCCCCCCC)CCCCCCCC.O=C([O-])C(F)(F)F [methyltrioctylammonium trifluoroacetate]  949.626 ± 2 kg/m3

Same assay, conditions: 323.15 K; 101.33 kPa; Liquid; Vibrating tube method

`CCCCCCCC[N+](C)(CCCCCCCC)CCCCCCCC.O=C([O-])C(F)(F)F` [methyltrioctylammonium trifluoroacetate] gave a mass density of 946.478 ± 2 kg/m3.

Same assay, conditions: 328.15 K; 101.33 kPa; Liquid; Alternating current cell with electrodes

With `CCCC[N+]1(C)CCCC1.N#CN=C=[N-]` [1-butyl-1-methylpyrrolidinium dicyanamide] the electrical conductivity was 2.44 S/m and 2.63 S/m.

In order of falling electrical conductivity:
1. CC[S+](CC)CC.O=S(=O)([N-]S(=O)(=O)C(F)(F)F)C(F)(F)F [triethylsulfonium bis((trifluoromethyl)sulfonyl)imide]  1.64 ± 0.025 S/m
2. CC[S+](C)CC.O=S(=O)([N-]S(=O)(=O)C(F)(F)F)C(F)(F)F [diethylmethylsulfonium bis[(trifluoromethyl)sulfonyl]imide]  1.61 ± 0.024 S/m
3. CCCC[n+]1ccccc1.O=S(=O)([N-]S(=O)(=O)C(F)(F)F)C(F)(F)F [1-butylpyridinium bis[(trifluoromethyl)sulfonyl]imide]  0.909 ± 0.014 S/m
4. CCCCCCCC[N+](C)(CCCCCCCC)CCCCCCCC.O=C([O-])C(F)(F)F [methyltrioctylammonium trifluoroacetate]  0.0112 ± 0.00017 S/m

Same assay, conditions: 328.15 K; 101.33 kPa; Liquid; Falling or rolling sphere viscometry

With `CCCC[N+]1(C)CCCC1.N#CN=C=[N-]` [1-butyl-1-methylpyrrolidinium dicyanamide] the viscosity was 16.47 ± 0.32 mPa·s and 15 ± 0.29 mPa·s.

In order of rising viscosity:
1. CC[S+](CC)CC.O=S(=O)([N-]S(=O)(=O)C(F)(F)F)C(F)(F)F [triethylsulfonium bis((trifluoromethyl)sulfonyl)imide]  13.26 ± 0.23 mPa·s
2. CC[S+](C)CC.O=S(=O)([N-]S(=O)(=O)C(F)(F)F)C(F)(F)F [diethylmethylsulfonium bis[(trifluoromethyl)sulfonyl]imide]  15.73 ± 0.28 mPa·s
3. CCCC[n+]1ccccc1.O=S(=O)([N-]S(=O)(=O)C(F)(F)F)C(F)(F)F [1-butylpyridinium bis[(trifluoromethyl)sulfonyl]imide]  20.36 ± 0.36 mPa·s
4. CCCCCCCC[N+](C)(CCCCCCCC)CCCCCCCC.O=C([O-])C(F)(F)F [methyltrioctylammonium trifluoroacetate]  212.1 ± 11 mPa·s

Same assay, conditions: 328.15 K; 101.33 kPa; Liquid; Vibrating tube method

In the case of `CCCC[N+]1(C)CCCC1.N#CN=C=[N-]` [1-butyl-1-methylpyrrolidinium dicyanamide], the mass density is reported as 1000.91 ± 2.1 kg/m3 and 996.796 ± 2.1 kg/m3.

In order of falling mass density:
1. CC[S+](C)CC.O=S(=O)([N-]S(=O)(=O)C(F)(F)F)C(F)(F)F [diethylmethylsulfonium bis[(trifluoromethyl)sulfonyl]imide]  1471.73 ± 3 kg/m3
2. CC[S+](CC)CC.O=S(=O)([N-]S(=O)(=O)C(F)(F)F)C(F)(F)F [triethylsulfonium bis((trifluoromethyl)sulfonyl)imide]  1431.52 ± 2.9 kg/m3
3. CCCC[n+]1ccccc1.O=S(=O)([N-]S(=O)(=O)C(F)(F)F)C(F)(F)F [1-butylpyridinium bis[(trifluoromethyl)sulfonyl]imide]  1420.8 ± 2.9 kg/m3
4. CCCCCCCC[N+](C)(CCCCCCCC)CCCCCCCC.O=C([O-])C(F)(F)F [methyltrioctylammonium trifluoroacetate]  943.335 ± 2 kg/m3

Same assay, conditions: 333.15 K; 101.33 kPa; Liquid; Vibrating tube method

`CCCCCCCC[N+](C)(CCCCCCCC)CCCCCCCC.O=C([O-])C(F)(F)F` [methyltrioctylammonium trifluoroacetate] showed a mass density of 940.189 ± 2 kg/m3.

Same assay, conditions: 338.15 K; 101.33 kPa; Liquid; Alternating current cell with electrodes

With `CCCC[N+]1(C)CCCC1.N#CN=C=[N-]` [1-butyl-1-methylpyrrolidinium dicyanamide] the electrical conductivity was 3.02 S/m and 3.23 S/m.

In order of falling electrical conductivity:
1. CC[S+](CC)CC.O=S(=O)([N-]S(=O)(=O)C(F)(F)F)C(F)(F)F [triethylsulfonium bis((trifluoromethyl)sulfonyl)imide]  2.03 ± 0.03 S/m
2. CC[S+](C)CC.O=S(=O)([N-]S(=O)(=O)C(F)(F)F)C(F)(F)F [diethylmethylsulfonium bis[(trifluoromethyl)sulfonyl]imide]  2 ± 0.03 S/m
3. CCCC[n+]1ccccc1.O=S(=O)([N-]S(=O)(=O)C(F)(F)F)C(F)(F)F [1-butylpyridinium bis[(trifluoromethyl)sulfonyl]imide]  1.17 ± 0.018 S/m
4. CCCCCCCC[N+](C)(CCCCCCCC)CCCCCCCC.O=C([O-])C(F)(F)F [methyltrioctylammonium trifluoroacetate]  0.0185 ± 0.00028 S/m

Same assay, conditions: 338.15 K; 101.33 kPa; Liquid; Falling or rolling sphere viscometry

For `CCCC[N+]1(C)CCCC1.N#CN=C=[N-]` [1-butyl-1-methylpyrrolidinium dicyanamide], the viscosity was 13.08 ± 0.26 mPa·s and 11.84 ± 0.23 mPa·s.

In order of rising viscosity:
1. CC[S+](CC)CC.O=S(=O)([N-]S(=O)(=O)C(F)(F)F)C(F)(F)F [triethylsulfonium bis((trifluoromethyl)sulfonyl)imide]  10.44 ± 0.18 mPa·s
2. CC[S+](C)CC.O=S(=O)([N-]S(=O)(=O)C(F)(F)F)C(F)(F)F [diethylmethylsulfonium bis[(trifluoromethyl)sulfonyl]imide]  12.34 ± 0.22 mPa·s
3. CCCC[n+]1ccccc1.O=S(=O)([N-]S(=O)(=O)C(F)(F)F)C(F)(F)F [1-butylpyridinium bis[(trifluoromethyl)sulfonyl]imide]  15.42 ± 0.27 mPa·s
4. CCCCCCCC[N+](C)(CCCCCCCC)CCCCCCCC.O=C([O-])C(F)(F)F [methyltrioctylammonium trifluoroacetate]  126.7 ± 4.3 mPa·s

Same assay, conditions: 338.15 K; 101.33 kPa; Liquid; Vibrating tube method

With `CCCC[N+]1(C)CCCC1.N#CN=C=[N-]` [1-butyl-1-methylpyrrolidinium dicyanamide] the mass density was 995.474 ± 2.1 kg/m3 and 991.368 ± 2.1 kg/m3.

In order of falling mass density:
1. CC[S+](C)CC.O=S(=O)([N-]S(=O)(=O)C(F)(F)F)C(F)(F)F [diethylmethylsulfonium bis[(trifluoromethyl)sulfonyl]imide]  1462.25 ± 3 kg/m3
2. CC[S+](CC)CC.O=S(=O)([N-]S(=O)(=O)C(F)(F)F)C(F)(F)F [triethylsulfonium bis((trifluoromethyl)sulfonyl)imide]  1422.15 ± 2.9 kg/m3
3. CCCC[n+]1ccccc1.O=S(=O)([N-]S(=O)(=O)C(F)(F)F)C(F)(F)F [1-butylpyridinium bis[(trifluoromethyl)sulfonyl]imide]  1411.66 ± 2.9 kg/m3
4. CCCCCCCC[N+](C)(CCCCCCCC)CCCCCCCC.O=C([O-])C(F)(F)F [methyltrioctylammonium trifluoroacetate]  937.046 ± 2 kg/m3

Same assay, conditions: 343.15 K; 101.33 kPa; Liquid; Vibrating tube method

`CCCCCCCC[N+](C)(CCCCCCCC)CCCCCCCC.O=C([O-])C(F)(F)F` [methyltrioctylammonium trifluoroacetate] gave a mass density of 933.904 ± 2 kg/m3.

Same assay, conditions: 348.15 K; 101.33 kPa; Liquid; Alternating current cell with electrodes

In order of rising electrical conductivity:
1. CCCCCCCC[N+](C)(CCCCCCCC)CCCCCCCC.O=C([O-])C(F)(F)F [methyltrioctylammonium trifluoroacetate]  0.0293 ± 0.00044 S/m
2. CCCC[n+]1ccccc1.O=S(=O)([N-]S(=O)(=O)C(F)(F)F)C(F)(F)F [1-butylpyridinium bis[(trifluoromethyl)sulfonyl]imide]  1.47 ± 0.022 S/m
3. CC[S+](C)CC.O=S(=O)([N-]S(=O)(=O)C(F)(F)F)C(F)(F)F [diethylmethylsulfonium bis[(trifluoromethyl)sulfonyl]imide]  2.43 ± 0.036 S/m
4. CC[S+](CC)CC.O=S(=O)([N-]S(=O)(=O)C(F)(F)F)C(F)(F)F [triethylsulfonium bis((trifluoromethyl)sulfonyl)imide]  2.46 ± 0.037 S/m
5. CCCC[N+]1(C)CCCC1.N#CN=C=[N-] [1-butyl-1-methylpyrrolidinium dicyanamide]  3.88 ± 0.058 S/m

Same assay, conditions: 348.15 K; 101.33 kPa; Liquid; Falling or rolling sphere viscometry

For `CCCC[N+]1(C)CCCC1.N#CN=C=[N-]` [1-butyl-1-methylpyrrolidinium dicyanamide], the viscosity was 10.57 ± 0.21 mPa·s and 9.634 ± 0.19 mPa·s.

In order of falling viscosity:
1. CCCCCCCC[N+](C)(CCCCCCCC)CCCCCCCC.O=C([O-])C(F)(F)F [methyltrioctylammonium trifluoroacetate]  79.97 ± 1.9 mPa·s
2. CCCC[n+]1ccccc1.O=S(=O)([N-]S(=O)(=O)C(F)(F)F)C(F)(F)F [1-butylpyridinium bis[(trifluoromethyl)sulfonyl]imide]  12.04 ± 0.21 mPa·s
3. CC[S+](C)CC.O=S(=O)([N-]S(=O)(=O)C(F)(F)F)C(F)(F)F [diethylmethylsulfonium bis[(trifluoromethyl)sulfonyl]imide]  9.945 ± 0.17 mPa·s
4. CC[S+](CC)CC.O=S(=O)([N-]S(=O)(=O)C(F)(F)F)C(F)(F)F [triethylsulfonium bis((trifluoromethyl)sulfonyl)imide]  8.445 ± 0.15 mPa·s
